Common to all, as to format: functional
Assay [1] has as its system Staphylococcus epidermidis. Nature of the assay: Antibacterial activity against Staphylococcus epidermidis after 24 hrs by broth dilution method. In general terms: In broth dilution the organism is exposed to a series of concentrations in liquid medium.
The next assay concerns Klebsiella pneumoniae. Nature of the assay: Antibacterial activity against Klebsiella pneumoniae after 24 hrs by broth dilution method.
Another assay deals with Pseudomonas aeruginosa. Nature of the assay: Antibacterial activity against Pseudomonas aeruginosa ATCC 27853 after 24 hrs by broth dilution method. The settings on record: ATCC 27853, 24 h.
The next assay concerns Staphylococcus aureus. Nature of the assay: Antibacterial activity against Staphylococcus aureus ATCC 29213 after 24 hrs by broth dilution method. The settings on record: ATCC 29213, 24 h.

≈ marks a conversion by molar mass, not a printed value. Where only a bound is given, the exact number is not on record here.

For orientation: MIC means the smallest concentration in the dilution series that meets the test's criterion for growth inhibition. A lower MIC goes with a more susceptible organism. Consider `CC1(C)[C@H]2CC[C@](C)(C2)[C@H]1OP(=S)(S)O[C@H]1C(C)(C)[C@H]2CC[C@]1(C)C2`, for which the minimum inhibitory concentration (MIC) in assay [1] was found to be 240 µM (≈ 96.6 µg/mL); against Klebsiella pneumoniae it was 1940 µM (≈ 781 µg/mL); with Pseudomonas aeruginosa, 1940 µM (≈ 781 µg/mL); against Staphylococcus aureus it was 240 µM (≈ 96.6 µg/mL).

With `Cc1ccc(C(C)C)c(OP(=S)(S)Oc2cc(C)ccc2C(C)C)c1.NC(=O)c1cccnc1`, the minimum inhibitory concentration (MIC) in assay [1] was found to be 380 µM; with Klebsiella pneumoniae, 1500 µM; against Pseudomonas aeruginosa it was 380 µM; in the assay on Staphylococcus aureus it was 380 µM.

Consider `CN1CCC[C@H]1c1cccnc1.Cc1ccc(C(C)C)c(OP(=S)(S)Oc2cc(C)ccc2C(C)C)c1`, for which the minimal inhibitory concentration (MIC) in assay [1] turned out to be 320 µM; in the assay on Klebsiella pneumoniae, 2530 µM; against Pseudomonas aeruginosa, 320 µM; in the assay with Staphylococcus aureus, 320 µM.

Turning to `CN[C@H](CC(C)C)C(=O)N[C@H]1C(=O)N[C@@H](CC(N)=O)C(=O)N[C@H]2C(=O)N[C@H]3C(=O)N[C@H](C(=O)N[C@H](C(=O)O)c4cc(O)cc(O)c4-c4cc3ccc4O)[C@H](O)c3ccc(c(Cl)c3)Oc3cc2cc(c3O[C@@H]2O[C@H](CO)[C@@H](O)[C@H](O)[C@H]2O[C@H]2C[C@](C)(N)[C@H](O)[C@H](C)O2)Oc2ccc(cc2Cl)[C@H]1O` [VANCOMYCIN], the minimum inhibitory concentration (MIC) is 0.7 µM (≈ 1.01 µg/mL) in assay [1], over 5000 µM with Klebsiella pneumoniae, over 5000 µM against Pseudomonas aeruginosa and 1.4 µM (≈ 2.03 µg/mL) in the assay with Staphylococcus aureus.

Take `CC1(C)[C@H]2CC[C@]1(C)[C@H](OP(=S)(S)O[C@@H]1C[C@@H]3CC[C@@]1(C)C3(C)C)C2.CN1CCC[C@H]1c1cccnc1`: the minimal inhibitory concentration (MIC) in assay [1] was determined as 20 µM; with Klebsiella pneumoniae, 320 µM; against Pseudomonas aeruginosa, 320 µM; in the assay with Staphylococcus aureus, 20 µM.

`CC1(C)[C@H]2CC[C@](C)(C2)[C@H]1OP(=S)(S)O[C@H]1C(C)(C)[C@H]2CC[C@]1(C)C2.Cc1ncc(CO)c(CO)c1O`: the MIC came to 20 µM in assay [1], 320 µM with Klebsiella pneumoniae, 320 µM against Pseudomonas aeruginosa and 20 µM in the assay on Staphylococcus aureus.

As to `C[C@@H]1[C@@H](OP(=S)(S)O[C@H]2C[C@H]3C[C@@H]([C@@H]2C)C3(C)C)C[C@H]2C[C@@H]1C2(C)C`, the minimal inhibitory concentration (MIC) in assay [1] was found to be 190 µM (≈ 76.5 µg/mL); in the assay on Klebsiella pneumoniae, 3110 µM (≈ 1250 µg/mL); against Pseudomonas aeruginosa it was 1560 µM (≈ 628 µg/mL); in the assay with Staphylococcus aureus it was 390 µM (≈ 157 µg/mL).

In the case of `CC(C)[C@H]1CC[C@H](C)C[C@@H]1OP(=S)(S)O[C@H]1C[C@@H](C)CC[C@@H]1C(C)C.CN1CCC[C@H]1c1cccnc1`, the minimal inhibitory concentration (MIC) in assay [1] is 20 µM; against Klebsiella pneumoniae, 320 µM; against Pseudomonas aeruginosa, 320 µM; with Staphylococcus aureus, 20 µM.

For the compound `C[C@@H]1[C@@H](OP(=S)(S)O[C@H]2C[C@H]3C[C@@H]([C@@H]2C)C3(C)C)C[C@H]2C[C@@H]1C2(C)C.Cc1ncc(CO)c(CO)c1O`, the MIC was found to be 20 µM in assay [1], 320 µM with Klebsiella pneumoniae, 320 µM against Pseudomonas aeruginosa and 20 µM with Staphylococcus aureus.

In the case of `Cc1ccc(C(C)C)c(OP(=S)(S)Oc2cc(C)ccc2C(C)C)c1`, the MIC (in assay [1]; against Klebsiella pneumoniae; in the assay with Pseudomonas aeruginosa; against Staphylococcus aureus) was 3800 µM (≈ 1500 µg/mL) in each case.

For the compound `CCCCOP(=S)(S)OCCCC.NC(=O)c1cccnc1`, the MIC (in assay [1]; with Klebsiella pneumoniae; in the assay with Pseudomonas aeruginosa; with Staphylococcus aureus) was 4130 µM in each case.

Regarding `CC1(C)[C@H]2CC[C@]1(C)[C@H](OP(=S)(S)O[C@@H]1C[C@@H]3CC[C@@]1(C)C3(C)C)C2`, the MIC (in assay [1]; with Klebsiella pneumoniae; with Pseudomonas aeruginosa; against Staphylococcus aureus) was 6210 µM (≈ 2500 µg/mL) throughout.

In the case of `Cc1ccc(C(C)C)c(OP(=S)(S)Oc2cc(C)ccc2C(C)C)c1.Cc1ncc(CO)c(CO)c1O`, the minimal inhibitory concentration (MIC) (in assay [1]; in the assay on Klebsiella pneumoniae; in the assay with Pseudomonas aeruginosa; in the assay on Staphylococcus aureus) was 530 µM in each case.

For `C[C@@H]1[C@@H](OP(=S)(S)O[C@H]2C[C@H]3C[C@@H]([C@@H]2C)C3(C)C)C[C@H]2C[C@@H]1C2(C)C.NC(=O)c1cccnc1`, the minimal inhibitory concentration (MIC) in assay [1] worked out at 300 µM; with Klebsiella pneumoniae it was 4780 µM; in the assay with Pseudomonas aeruginosa it was 4780 µM; in the assay on Staphylococcus aureus it was 300 µM.

As to `CN1CCC[C@H]1c1cccnc1.C[C@@H]1[C@@H](OP(=S)(S)O[C@H]2C[C@H]3C[C@@H]([C@@H]2C)C3(C)C)C[C@H]2C[C@@H]1C2(C)C`, the minimum inhibitory concentration (MIC) in assay [1] came out at 20 µM; in the assay with Klebsiella pneumoniae, 320 µM; in the assay with Pseudomonas aeruginosa, 320 µM; in the assay with Staphylococcus aureus, 20 µM.

`CCCCOP(=S)(S)OCCCC.CN1CCC[C@H]1c1cccnc1`: the minimal inhibitory concentration (MIC) amounted to 1810 µM in assay [1], 3630 µM against Klebsiella pneumoniae, 3630 µM against Pseudomonas aeruginosa and 1810 µM against Staphylococcus aureus.

For the compound `CC(C)[C@H]1CC[C@H](C)C[C@@H]1OP(=S)(S)O[C@H]1C[C@@H](C)CC[C@@H]1C(C)C.Cc1ncc(CO)c(CO)c1O`, the minimum inhibitory concentration (MIC) in assay [1] worked out at 10 µM; in the assay on Klebsiella pneumoniae, 320 µM; in the assay with Pseudomonas aeruginosa, 320 µM; in the assay with Staphylococcus aureus it was 40 µM.

Source of the values: ChEMBL document CHEMBL4371024, “Synthesis and characterization of pyridoxine, nicotine and nicotinamide salts of dithiophosphoric acids as antibacterial agents against resistant wound infection” (Bioorg Med Chem, 2019).
